Source: patent US7579462B2, “Process for preparing 17-allyl amino geldanamycin (17-aag) and other ansamycins” (Conforma Therapeutics Corporation, priority 2001, dated 2009)

Assay: Relative solubility of 17-AAG polymorphs in solvents and oils
Assay type: physicochemical
Conditions: lower melting point form (about 147-153° C.) compared with higher melting point form (about 200-212° C.) of 17-AAG; at room temperature
Description: Indeed, one aspect of the invention is the ability to form and exploit different polymorphic structures. […] The water may be premixed with the ethanol or later added to the ethanol solution already containing 17-AAG dissolved therein. […] Depending on the end-goal, one may readily convert one form to another simply by dissolving and crystallizing in the appropriate solvent.

In the case of `C=CCNC1=C2C[C@@H](C)C[C@H](OC)[C@H](O)[C@@H](C)/C=C(\C)[C@H](OC(N)=O)[C@@H](OC)/C=C\C=C(/C)C(=O)NC(=CC1=O)C2=O` [17-AAG, 17-allylamino-geldanamycin], the “solubility in a variety of solvents and oils” value is reported as “more readily soluble”.
